Measurements from BindingDB's records for patent US20250313563 (The Broad Institute, 2025).
Several values for one entry are separate records, joined by “and”; a condition that tells them apart may be missing. Identical values can stand only once.

Key:
[1] = molecular target: Glycogen synthase kinase-3 beta (Homo sapiens, UniProt P49841); assay: TR-FRET Assay
Outline: (§1)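 Compound was preincubated 30 min in assay buffer before the kinase reaction, which was quenched with EDTA. Phosphorylation was detected by TR-FRET after adding a solution of 40 nM streptavidin-d2 and 2 nM Tb-labelled anti-pSer641 antibody.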

[2] = molecular target: Glycogen synthase kinase-3 alpha (Homo sapiens, UniProt P49840); assay: TR-FRET Assay
Outline: as §1

Glycogen synthase kinase-3 beta, sequence (P49841 whole entry): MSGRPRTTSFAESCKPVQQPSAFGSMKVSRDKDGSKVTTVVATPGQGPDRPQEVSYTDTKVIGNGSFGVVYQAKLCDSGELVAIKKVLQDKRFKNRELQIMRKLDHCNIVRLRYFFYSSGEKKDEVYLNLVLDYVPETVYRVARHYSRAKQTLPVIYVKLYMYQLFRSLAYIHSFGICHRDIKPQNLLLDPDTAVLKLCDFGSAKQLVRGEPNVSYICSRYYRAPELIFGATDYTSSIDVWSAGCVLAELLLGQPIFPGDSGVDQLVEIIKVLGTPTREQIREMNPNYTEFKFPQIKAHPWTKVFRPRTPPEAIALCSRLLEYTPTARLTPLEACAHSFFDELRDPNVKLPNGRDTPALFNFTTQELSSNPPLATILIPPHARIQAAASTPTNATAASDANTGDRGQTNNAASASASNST
Glycogen synthase kinase-3 alpha, sequence (P49840 whole entry): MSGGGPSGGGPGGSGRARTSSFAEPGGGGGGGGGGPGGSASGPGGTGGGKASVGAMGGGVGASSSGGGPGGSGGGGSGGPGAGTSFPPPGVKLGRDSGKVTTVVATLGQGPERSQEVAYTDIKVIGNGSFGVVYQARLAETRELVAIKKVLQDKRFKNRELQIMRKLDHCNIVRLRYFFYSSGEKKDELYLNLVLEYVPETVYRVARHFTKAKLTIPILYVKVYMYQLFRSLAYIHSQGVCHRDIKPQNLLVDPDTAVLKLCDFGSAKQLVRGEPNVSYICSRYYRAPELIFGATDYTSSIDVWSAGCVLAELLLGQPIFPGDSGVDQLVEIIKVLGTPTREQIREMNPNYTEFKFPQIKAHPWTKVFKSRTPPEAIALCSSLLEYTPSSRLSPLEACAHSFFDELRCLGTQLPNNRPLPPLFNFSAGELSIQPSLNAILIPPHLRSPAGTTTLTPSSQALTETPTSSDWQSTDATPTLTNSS

| SMILES | IC50 [1] | IC50 [2] [nM] |
| --- | --- | --- |
| CC1(C)CC(=O)C2=C(C1)NC1N=NC=C1[C@]21CCCN(S(=O)(=O)Cc2ccccc2)CC1 (some centres not stated) [US20250313563, Compound 945483] | 100 to 1000 nM | 100 to 1000 |
| CC[C@]1(c2cccc(CN(C)c3ccc(C(F)(F)F)nc3)c2)C2=CN=NC2NC2=C1C(=O)CC(C)(C)C2 (some centres not stated) [US20250313563, Compound 945484] | > 5000 nM | > 5000 |
| CC[C@]1(c2cccc(-c3ccnc(C)c3)c2)C2=CN=NC2NC2=C1C(=O)[C@H](F)C(C)(C)C2 (some centres not stated) [US20250313563, Compound 945485] | > 5000 nM | > 5000 |
| CC[C@]1(c2cccc(-c3ccnc(C)c3)c2)C2=CN=NC2NC2=C1C(=O)[C@@H](F)C(C)(C)C2 (some centres not stated) [US20250313563, Compound 945486] | > 5000 nM | 1000 to 5000 |
| CCC1(c2cccc(-c3ccncc3C)c2)C2=C(CC(C)(C)CC2=O)NC2N=NC(C(F)(F)F)=C21 (configuration not stated) [US20250313563, Compound 945527] | < 100 nM and 100 to 1000 nM | < 100 |
| CCC1(c2cccc(-c3ccncc3F)c2)C2=C(CC(C)(C)CC2=O)NC2N=NC(C(F)(F)F)=C21 (configuration not stated) [US20250313563, Compound 945528] | < 100 nM and 100 to 1000 nM | < 100 |
| CCC1(c2cccc(-c3ccnc(C)c3C)c2)C2=C(CC(C)(C)CC2=O)NC2N=NC(C(F)(F)F)=C21 (configuration not stated) [US20250313563, Compound 945529] | < 100 nM and 100 to 1000 nM | < 100 |
| CCC1(c2cccc(-c3cc(C)ncc3C)c2)C2=C(CC(C)(C)CC2=O)NC2N=NC(C(F)(F)F)=C21 (configuration not stated) [US20250313563, Compound 945530] | < 100 nM | < 100 |
| CCC1(c2cccc(-c3ccnn3C)c2)C2=C(CC(C)(C)CC2=O)NC2N=NC(C(F)(F)F)=C21 (configuration not stated) [US20250313563, Compound 945531] | < 100 nM and 100 to 1000 nM | < 100 |
| CCC1(c2cccc(-c3cc(C)nn3C)c2)C2=C(CC(C)(C)CC2=O)NC2N=NC(C(F)(F)F)=C21 (configuration not stated) [US20250313563, Compound 945532] | < 100 nM and 100 to 1000 nM | < 100 |
| CC[C@]1(c2cccc(-c3cnn4c3CCCC4)c2)C2=CN=NC2NC2=C1C(=O)CC(C)(C)C2 (some centres not stated) [US20250313563, Compound 945543] | 1000 to 5000 nM | 100 to 1000 |
| CC[C@]1(c2cccc(-c3cn(C)nc3C)c2)C2=CN=NC2NC2=C1C(=O)CC(C)(C)C2 (some centres not stated) [US20250313563, Compound 945545] | > 5000 nM | 1000 to 5000 |
| CC[C@@]1(c2cccc(-c3cn(C)nc3C)c2)C2=CN=NC2NC2=C1C(=O)CC(C)(C)C2 (some centres not stated) [US20250313563, Compound 945546] | < 100 nM and 100 to 1000 nM | < 100 |
| CC1(C)CC(=O)C2=C(C1)NC1N=NC=C1[C@@]21CCCc2c(-c3ccncc3)cccc21 (some centres not stated) [US20250313563, Compound 945547] | > 5000 nM | 1000 to 5000 |
| CC1(C)CC(=O)C2=C(C1)NC1N=NC=C1[C@]21CCCc2c(-c3ccncc3)cccc21 (some centres not stated) [US20250313563, Compound 945548] | < 100 nM | < 100 |
| Cc1cc(-c2cccc3c2CCC[C@@]32C3=CN=NC3NC3=C2C(=O)CC(C)(C)C3)ccn1 (some centres not stated) [US20250313563, Compound 945549] | < 100 nM | < 100 |
| Cc1cc(-c2cccc3c2CCC[C@]32C3=CN=NC3NC3=C2C(=O)CC(C)(C)C3)ccn1 (some centres not stated) [US20250313563, Compound 945550] | > 5000 nM | 100 to 1000 |
| Cn1nccc1-c1cccc2c1CCC[C@@]21C2=CN=NC2NC2=C1C(=O)CC(C)(C)C2 (some centres not stated) [US20250313563, Compound 945551] | < 100 nM | < 100 |
| Cn1nccc1-c1cccc2c1CCC[C@]21C2=CN=NC2NC2=C1C(=O)CC(C)(C)C2 (some centres not stated) [US20250313563, Compound 945552] | > 5000 nM | 100 to 1000 |
| CCC1(c2cccc(-c3cncn3C)c2)C2=CN=NC2NC2=C1C(=O)NC(C)(C)C2 (configuration not stated) [US20250313563, Compound 945597] | < 100 nM | < 100 |
| CCC1(c2cccc(-c3c(C)nn(C)c3C)c2)C2=C(CC(C)(C)NC2=O)NC2N=NC(C)=C21 (configuration not stated) [US20250313563, Compound 945598] | < 100 nM | < 100 |
| CCC1(c2cccc(-c3ccncc3C)c2)C2=C(CC(C)(C)NC2=O)NC2N=NC(C)=C21 (configuration not stated) [US20250313563, Compound 945599] | < 100 nM | < 100 |
| CCc1cc(N(C)c2cccc(C3(CC)C4=CN=NC4NC4=C3C(=O)CC(C)(C)C4)c2)ccn1 (configuration not stated) [US20250313563, Compound 945600] | 1000 to 5000 nM | 100 to 1000 |
| CCC1(c2cccc(CS(C)(=O)=O)c2)C2=CN=NC2NC2=C1C(=O)CC(C)(C)C2 (configuration not stated) [US20250313563, Compound 945601] | 100 to 1000 nM | 100 to 1000 |
| CCC1(c2cccc(N3CCOCC3)c2)C2=CN=NC2NC2=C1C(=O)NC(C)(C)C2 (configuration not stated) [US20250313563, Compound 945602] | > 5000 nM | 1000 to 5000 |
| CCC1(c2cccc(-c3cnn4c3CCCC4)c2)C2=CN=NC2NC2=C1C(=O)NC(C)(C)C2 (configuration not stated) [US20250313563, Compound 945603] | 100 to 1000 nM | < 100 |
